In ChEMBL document CHEMBL2311480, “Inhibitors of apoptosis in testicular germ cells: synthesis and biological evaluation of some novel IBTs bearing sulfonamide moiety” (2013):

Experiment: Inhibition of malathion-induced apoptosis in goat testicular germ cells assessed as cell survival at 10 uM (malathion treated control = 41 +/- 6.24%)
Format: functional
Details: Capra hircus; read-out: Survival

| SMILES | viability at 10 µM [%] |
| --- | --- |
| NS(=O)(=O)c1ccc2c(c1)sc1nc(-c3ccc([N+](=O)[O-])cc3)cn12 | 39 |
| NS(=O)(=O)c1ccc2c(c1)sc1nc(-c3ccc(Cl)cc3)cn12 | 56 |
| NS(=O)(=O)c1ccc2c(c1)sc1nc(-c3cc4cc(Br)ccc4oc3=O)cn12 | 48 |
| NS(=O)(=O)c1ccc2c(c1)sc1nc(-c3cc4ccccc4oc3=O)cn12 | 46 |
| NS(=O)(=O)c1ccc2c(c1)sc1nc(-c3ccc(Br)cc3)cn12 | 52 |
| NS(=O)(=O)c1ccc2c(c1)sc1nc(-c3cc4cc(Cl)ccc4oc3=O)cn12 | 61 |
| CCOC(=O)CC(SP(=S)(OC)OC)C(=O)OCC (stereo not given) [MALATHION] | 41 |
| NS(=O)(=O)c1ccc2c(c1)sc1nc(-c3ccc(F)cc3)cn12 | 43 |
| NS(=O)(=O)c1ccc2c(c1)sc1nc(-c3ccccc3)cn12 | 50 |
| Cc1ccc(-c2cn3c(n2)sc2cc(S(N)(=O)=O)ccc23)cc1 | 64 |
